Experimental data from ChEMBL document CHEMBL6177951, “Synthesis and anti-MRSA activity of quaternized small molecule antimicrobial peptide mimics based on norharmane” (Eur J Med Chem, 2025).
pKd: −log10 of the molar value. Active and inactive are the calls of the source. The calls are words filed in the database; no cut-off is given here.

Columns and labels:
Calf thymus DNA [1] = assay: Binding affinity to calf thymus DNA assessed as binding constant by ITC assay; assay type: nucleic-acid assay; conditions: Bos taurus
Staphylococcus aureus [2] = assay: Induction of morphological changes in methicillin-resistant Staphylococcus aureus assessed as appearance of holes in cells at 0.5 ug/ml incubated for 6 hrs by SEM analysis; assay type: functional, organism-based; conditions: dose 0.5 µg/ml
Staphylococcus aureus [3] = assay: Antibacterial activity against methicillin-resistant Staphylococcus aureus clinical isolate M-21 incubated for 14 hrs by two-fold serial dilution method; assay type: functional
Staphylococcus aureus [4] = assay: In vivo antibacterial activity against methicillin-resistant Staphylococcus aureus infected in female Kunming mouse skin infection model assessed as log reduction in bacterial load at 5 mg/kg measured after 48 hrs (reference value: 14.34 log10CFU/g); assay type: functional
Staphylococcus aureus [5] = assay: Induction of morphological changes in methicillin-resistant Staphylococcus aureus assessed as appearance of fragments at 0.5 ug/ml incubated for 6 hrs by SEM analysis; assay type: functional, organism-based; conditions: dose 0.5 µg/ml
Staphylococcus aureus [6] = assay: Bactericidal activity against Staphylococcus aureus ATCC 33591 assessed as eradication of bacteria at 4 times MIC measured at 4 hrs by time-kill kinetic assay relative to control; assay type: functional
Staphylococcus aureus [7] = assay: Antibacterial activity against methicillin-resistant Staphylococcus aureus assessed as change in cell surface zeta potential at 256 ug/ml incubated for 8 hrs; assay type: functional, organism-based; conditions: dose 256.0 µg/ml
Lipoteichoic acid = assay: Displacement of BODIPY-TR-cadaverine from Staphylococcus aureus LTA assessed as increase in fluorescence intensity at 2 ug/ml incubated for 0.5 hrs by fluorescence based analysis relative to control; conditions: dose 2.0 µg/ml
Staphylococcus aureus [8] = assay: Antibacterial activity against methicillin-resistant Staphylococcus aureus clinical isolate M-18 incubated for 14 hrs by two-fold serial dilution method; assay type: functional
Staphylococcus aureus [9] = assay: Antibacterial activity against methicillin-resistant Staphylococcus aureus clinical isolate M-20 incubated for 14 hrs by two-fold serial dilution method; assay type: functional
Staphylococcus aureus [10] = assay: Antibiofilm activity against methicillin-resistant Staphylococcus aureus assessed as disruption of preformed biofilm at 0.25 to 16 ug/ml incubated for 24 hrs by crystal violet staining based analysis; assay type: functional, organism-based; conditions: dose 0.25-16 µg/ml
Staphylococcus aureus [11] = assay: Antibacterial activity against Staphylococcus aureus ATCC 25923 assessed as inhibition of bacterial growth incubated for 14 hrs by two-fold serial dilution method; assay type: functional
[12] = Acute toxicity in female Kunming mouse assessed as mortality at 500 to 2000 mg/kg, sc measured after 7 days; assay type: organism-based; conditions: in vivo, 168 h, dose 500-2000 mg/kg, time 7 day
Staphylococcus aureus [13] = assay: Antibacterial activity against methicillin-resistant Staphylococcus aureus clinical isolate M-23 incubated for 14 hrs by two-fold serial dilution method; assay type: functional
Staphylococcus aureus [14] = assay: Antibiofilm activity against methicillin-resistant Staphylococcus aureus assessed as inhibition of biofilm formation at 2 ug/ml incubated for 24 hrs by crystal violet staining based analysis relative to control; assay type: functional; set-up: scale not given: the % may be the effect or the level left; conditions: dose 2 µg/ml
Cell membrane [15] = assay: Induction of cell membrane integrity in methicillin-resistant Staphylococcus aureus assessed as appearance of blue and red fluorescence at 0.25 ug/ml incubated for 8 hrs by DAPI/PI staining based fluorescence microscopic analysis; assay type: subcellular; conditions: dose 0.25 µg/ml
Staphylococcus aureus [16] = assay: Induction of oxidative damage in methicillin-resistant Staphylococcus aureus assessed as loss of GSH activity incubated for 8 hrs; assay type: functional, organism-based; conditions: dose 0.25-2 µg/ml
[17] = Toxicity in female Kunming mouse assessed as pathological changes in kidney at 500 to 2000 mg/kg, sc measured after 7 days by H and E staining based analysis; assay type: organism-based; conditions: in vivo, 168 h, dose 500-2000 mg/kg, time 7 day
Staphylococcus aureus [18] = assay: Antibacterial activity against methicillin-resistant Staphylococcus aureus clinical isolate M-14 incubated for 14 hrs by two-fold serial dilution method; assay type: functional
Calf thymus DNA [19] = assay: Binding affinity to calf thymus DNA assessed as dissociation constant by ITC assay; assay type: nucleic-acid assay, Bos taurus
Staphylococcus aureus [20] = assay: Antibacterial activity against methicillin-resistant Staphylococcus aureus ATCC 43300 assessed as inhibition of bacterial growth incubated for 14 hrs by two-fold serial dilution method; assay type: functional
Staphylococcus aureus [21] = assay: Antibacterial activity against methicillin-resistant Staphylococcus aureus clinical isolate M-22 incubated for 14 hrs by two-fold serial dilution method; assay type: functional
Calf thymus DNA [22] = assay: Binding affinity to calf thymus DNA assessed as change in enthalpy at 3 uM by ITC assay; assay type: nucleic-acid assay; conditions: Bos taurus
Staphylococcus aureus [23] = assay: Induction of ROS generation in methicillin-resistant Staphylococcus aureus assessed as fold increase in fluorescence intensity at 2 ug/ml incubated for 8 hrs by DCFH-DA dye analysis; assay type: functional; conditions: dose 2 µg/ml
Staphylococcus aureus [24] = assay: Antibacterial activity against Staphylococcus aureus ATCC 33591 assessed as resistance development by measuring fold increase in MIC at 0.5 times MIC incubated for 8 hrs and measured after 15 passages; assay type: functional
[25] = Toxicity in female Kunming mouse assessed as pathological changes in skin tissue at 5 to 20 mg/kg, sc measured after 48 hrs by H and E staining based analysis; assay type: organism-based; conditions: in vivo, dose 5-20 mg/kg
Staphylococcus aureus [26] = assay: Antibacterial activity against methicillin-resistant Staphylococcus aureus incubated for 6 hrs in presence of 10 to 60% sheep plasma; assay type: functional, organism-based
Staphylococcus aureus [27] = assay: In vivo antibacterial activity against methicillin-resistant Staphylococcus aureus infected in female Kunming mouse skin infection model assessed as appearance of smooth inside skin at 20 mg/kg measured after 48 hrs; assay type: functional, organism-based
Staphylococcus aureus [28] = assay: Antibacterial activity against methicillin-resistant Staphylococcus aureus assessed as increase MIC incubated for 6 hrs in presence of 70 to 100% sheep plasma; assay type: functional
[29] = Hemolytic activity in sheep RBC assessed as hemolysis at 256 times MIC incubated for 1 hrs relative to control; assay type: toxicity, cell-based, Ovis aries, Erythrocyte; conditions: sheep red blood cells, read-out: Activity
Staphylococcus aureus [30] = assay: In vivo antibacterial activity against methicillin-resistant Staphylococcus aureus infected in female Kunming mouse skin infection model assessed as reduction in inflammatory cells at 5 to 20 mg/kg measured after 48 hrs by H and E staining based analysis; assay type: functional, organism-based; conditions: dose 5-20 mg/kg
Staphylococcus aureus [31] = assay: Antibacterial activity against methicillin-resistant Staphylococcus aureus clinical isolate M-17 incubated for 14 hrs by two-fold serial dilution method; assay type: functional
Staphylococcus aureus [32] = assay: Antibacterial activity against Staphylococcus aureus ATCC 33591 assessed as log reduction in bacterial growth at 2 times MIC measured at 6 hrs by time-kill kinetic assay; assay type: functional
Staphylococcus aureus [33] = assay: In vivo antibacterial activity against methicillin-resistant Staphylococcus aureus infected in female Kunming mouse skin infection model assessed as log reduction in bacterial load at 20 mg/kg measured after 48 hrs (reference value: 14.34 log10CFU/g); assay type: functional
Cell membrane [34] = assay: Induction of cell membrane permeability in methicillin-resistant Staphylococcus aureus assessed as increase in nucleic acid leakage at 2 ug/ml incubated for 8 hrs; assay type: subcellular; conditions: dose 2.0 µg/ml
Staphylococcus aureus [35] = assay: Antibacterial activity against Staphylococcus aureus ATCC 33591 assessed as inhibition of bacterial growth at 1 to 2 times MIC measured after 24 hrs by growth kinetic assay; assay type: functional, organism-based
L02 = assay: Cytotoxicity against human L02 cells assessed as reduction in cell viability at 0.25 ug/ml incubated for 24 hrs by CCK-8 assay relative to control; assay type: toxicity, cell-based; conditions: l02, 24 h, at 0.25 µg/mL
Calf thymus DNA [36] = assay: Binding affinity to calf thymus DNA assessed as change in entropy at 3 uM by ITC assay; assay type: nucleic-acid assay; conditions: Bos taurus
Staphylococcus aureus [37] = assay: Antibacterial activity against methicillin-resistant Staphylococcus aureus assessed as reduction in bacterial growth in presence of 16 ug/ml peptidoglycan incubated for 0.5 hrs by exogenous addition assay; assay type: functional, organism-based

## C[n+]1ccc2c3ccccc3n(CCCCCCCCCCCn3c4ccccc4c4cc[n+](C)cc43)c2c1.[I-].[I-]
Calf thymus DNA [1]
  K: 2.21 10^5/M
Staphylococcus aureus [2]
  Activity: Active
Staphylococcus aureus [3]
  MIC: 1 µg/mL
Staphylococcus aureus [4]
  Activity: 4.85 log10CFU/g
Staphylococcus aureus [5]
  Activity: Active
Staphylococcus aureus [6]
  Activity: 100%
Staphylococcus aureus [7]
  Activity: Active
Lipoteichoic acid
  Activity: 31.7%
Staphylococcus aureus [8]
  MIC: 0.5 µg/mL
Staphylococcus aureus [9]
  MIC: 0.5 µg/mL
Staphylococcus aureus [10]
  Activity: inactive
Staphylococcus aureus [11]
  MIC: 1 µg/mL
[12]
  Activity: Non-toxic
Staphylococcus aureus [13]
  MIC: 0.5 µg/mL
Staphylococcus aureus [14]
  Activity: 79%
Cell membrane [15]
  Activity: Active
Staphylococcus aureus [16]
  Activity: Dose-dependent-effect
[17]
  Activity: Non-toxic
Staphylococcus aureus [18]
  MIC: 0.25 µg/mL
Calf thymus DNA [19]
  pKd: 5.34
Staphylococcus aureus [20]
  MIC: 1 µg/mL
Staphylococcus aureus [21]
  MIC: 0.5 µg/mL
Calf thymus DNA [22]
  deltaH: -0.931 kJ/mol
Staphylococcus aureus [23]
  fold change (FC): 4.34
Staphylococcus aureus [24]
  fold change (FC): 2
[25]
  Activity: Non-toxic
Staphylococcus aureus [26]
  Activity: Active
Staphylococcus aureus [27]
  Activity: Active
Staphylococcus aureus [28]
  MIC: 0.5 µg/mL
[29]
  hemolysis at 1 h, 256 times MIC: < 10%
Staphylococcus aureus [30]
  Activity: Active
Staphylococcus aureus [31]
  MIC: 0.5 µg/mL
Staphylococcus aureus [32]
  Activity: 4.26 log10CFU/ml
Staphylococcus aureus [33]
  Activity: 7.29 log10CFU/g
Cell membrane [34]
  Activity: Active
Staphylococcus aureus [35]
  Activity: Active
L02
  Activity: 97.25%
Calf thymus DNA [36]
  deltaS: 99.2 J/mol.K
Staphylococcus aureus [37]
  Activity: Active
